From US8242083B2, “Kinase substrates” (PerkinElmer Health Sciences, Inc., priority 2008, dated 2012)

Test system: 83 tyrosine kinases
Test: Panel of 83 TR-FRET tyrosine kinase assays
Type: biochemical
Conditions: 83 tyrosine kinases tested; conditions of Example 1
Procedure: TR-FRET kinase assays are performed under standardized conditions: various individual kinases are incubated with 50 nM of kinase substrate BRB1 labeled with the TR-FRET acceptor dye ULight (PerkinElmer) and 200 micromolar ATP in 10 μL of kinase assay buffer (50 mM HEPES pH7.5, 10 mM MgCl2, 3 mM MnCl2, 1 mM EGTA, 2 mM DTT and 0.01% Tween-20) for 2 hours at room temperature. Reactions are stopped with EDTA, and anti-phospho-tyrosine antibodies (clone PT66) labeled with the TR-FRET europium chelate donor dye are added to a final concentration of 2 nM in a final volume of 20 μL. The TR-FRET signal emitted at 665 nm is read one hour after the addition of antibodies using a TR-FRET plate reader such as the Envision® Multilabel Plate reader (PerkinElmer). The emitted signal at 665 nm is proportional to the extent of peptide phosphorylation, Control reactions indicative of background are performed excluding ATP from the reaction.
Assay conditions are identical to those used described for FIG. 1.
The BRB2 peptide is tested with 83 tyrosine kinases in assay conditions identical to those used for BRB1 in Example 1. Data obtained with BRB2 indicate that the peptide is phosphorylated by 65 kinases out of 83 (78%), with signal to noise ratio of >3.

## CGG E AYE AYE AYE AYA EYE ARR (CGGEAYEAYEAYEAYAEYEARR; tyrosine kinase substrate peptide) [BRB2]
  Number of kinases out of 83 that phosphorylated the peptide with signal to noise ratio of >3: 65
  Percentage of 83 kinases that phosphorylated the peptide with signal to noise ratio of >3: 78%
